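In this assay, cells in 96-well plates receive the compound at five concentrations for 48 hours. Endpoints are linearly interpolated between the surrounding concentrations. GI50 is the concentration that inhibits growth by half. TGI: concentration producing complete growth inhibition.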
Experiments:
Assay in all cases: NCI tumour cell line growth inhibition, 48 h
CAKI-1 renal = tested on: CAKI-1 renal
786-0 renal = tested on: 786-0 renal
OVCAR-8 ovarian = tested on: OVCAR-8 ovarian
SNB-75 CNS = tested on: SNB-75 CNS
IGROV1 ovarian = tested on: IGROV1 ovarian
OVCAR-5 ovarian = tested on: OVCAR-5 ovarian
HT29 colon = tested on: HT29 colon
UACC-257 melanoma = tested on: UACC-257 melanoma

SMILES	GI50 (CAKI-1 renal)	TGI (CAKI-1 renal)	GI50 (786-0 renal)	TGI (786-0 renal)	GI50 (OVCAR-8 ovarian)	TGI (OVCAR-8 ovarian)	GI50 (SNB-75 CNS)	TGI (SNB-75 CNS)	GI50 (IGROV1 ovarian)	TGI (IGROV1 ovarian)	GI50 (OVCAR-5 ovarian)	TGI (OVCAR-5 ovarian)	GI50 (HT29 colon)	TGI (HT29 colon)	TGI (UACC-257 melanoma)	GI50 (UACC-257 melanoma)
CC/C=C/[C@@H]1C=C[C@@H]2CCC[C@H]2[C@@H]1CC[C@H](O)[C@H](C)N	3.73 µM	20.5 µM	1.72 µM	3.09 µM	2.3 µM	5.54 µM	0.538 µM	5.23 µM	1.5 µM	2.92 µM	1.69 µM	3.55 µM	1.46 µM	2.77 µM	–	–
Cc1ccc(S(=O)(=O)NCCCN(CCCNS(=O)(=O)c2ccc(C)cc2)S(=O)(=O)c2ccc(C)cc2)cc1	–	–	–	> 100 µM	–	> 100 µM	–	> 100 µM	–	> 100 µM	–	–	–	–	> 100 µM	–
CC(C)c1ccc2c(c1)CCC1C(C)(C)[C@@H](O)CC[C@]21C (some centres undefined)	–	> 100 µM	–	52.5 µM	–	> 100 µM	–	55.4 µM	–	> 100 µM	–	41.7 µM	–	30 µM	–	–
Cc1cc(Cl)n2c(nc3ccccc32)c1C#N	0.282 µM	1.41 µM	0.768 µM	6.48 µM	0.597 µM	11.9 µM	1.33 µM	8.53 µM	0.414 µM	1.82 µM	0.83 µM	10.8 µM	–	–	4.8 µM	0.727 µM
COc1cc[c]([Hg][Cl])cc1	6.55 µM	23 µM	3.76 µM	10.8 µM	6.11 µM	> 100 µM	1.69 µM	4.37 µM	1.53 µM	3.92 µM	20.1 µM	37.6 µM	5.4 µM	61 µM	14.5 µM	4.16 µM
CCCCc1ccc2nc(NC(=O)OC)[nH]c2c1	0.0314 µM	12.9 µM	0.0613 µM	29.3 µM	0.0837 µM	> 52.9 µM	0.0257 µM	1.18 µM	0.101 µM	> 78.7 µM	1.4 µM	> 100 µM	0.0377 µM	–	–	–
CCOP1(=O)OCC2OC(n3cnc4c(N)ncnc43)C(O)C2O1 (centres undefined)	–	> 100 µM	–	> 100 µM	–	> 100 µM	–	> 100 µM	–	> 100 µM	–	> 100 µM	–	> 100 µM	> 100 µM	–
Cc1ncc(C(=O)Nc2ccc(CN3CCN(C)CC3)c(C(F)(F)F)c2)cc1C#Cc1c(N)ncc2ccc(C#N)cc12	0.89 µM	7.22 µM	1.19 µM	3.06 µM	4.77 µM	21.2 µM	2.38 µM	8.93 µM	0.111 µM	4 µM	1.25 µM	10.9 µM	0.0293 µM	7.74 µM	10.5 µM	0.473 µM
CCc1cc(C(N)=O)ccc1-n1nc(C(C)C)c2c(-n3cnc(-c4cnn(C)c4)c3)ccnc21	5.61 µM	> 100 µM	5.67 µM	> 100 µM	3.72 µM	> 100 µM	4.11 µM	> 100 µM	4.15 µM	> 100 µM	15.4 µM	> 100 µM	0.474 µM	> 100 µM	> 100 µM	2.9 µM
COc1ccc(C(=O)/C=C/c2ccc(Cl)cc2)cc1S(N)(=O)=O	2.72 µM	10.6 µM	1.74 µM	3.69 µM	3.55 µM	10.2 µM	–	–	2.67 µM	8.34 µM	3.08 µM	13.8 µM	3.27 µM	10.5 µM	24.9 µM	12.2 µM
Cn1cc(-c2ccc3cc(-c4ccc(CC(=O)Nc5cc(C(C)(C)C)nn5C)cc4)cnc3c2)cn1	0.0519 µM	> 100 µM	0.351 µM	> 100 µM	0.274 µM	> 100 µM	0.0723 µM	> 100 µM	0.063 µM	> 100 µM	0.606 µM	> 100 µM	0.377 µM	> 100 µM	> 100 µM	0.425 µM
Clc1ccc(Cl)c(N/N=C\c2c[nH]c3ccccc23)c1	5.43 µM	19.6 µM	12.8 µM	25.4 µM	14.9 µM	29.4 µM	–	–	0.0611 µM	0.623 µM	17.3 µM	36.9 µM	–	–	28.9 µM	15.2 µM
COc1ccccc1/C=C1\COc2ccc(O)c(O)c2C1=O	1.48 µM	4.15 µM	2.2 µM	6.72 µM	2.38 µM	> 100 µM	–	–	1.46 µM	4.21 µM	2.33 µM	5.48 µM	2.77 µM	7.78 µM	–	–
O=C1CCC/C=C\C[C@H]2C=C(Cl)C(=O)/C2=C/C[C@H](CCCCC(F)(F)F)OC(=O)CCC/C=C\C[C@H]2C=C(Cl)C(=O)/C2=C/C[C@H](CCCCC(F)(F)F)O1	–	–	0.18 µM	0.475 µM	0.231 µM	1.09 µM	1.23 µM	6.24 µM	0.231 µM	0.791 µM	0.34 µM	2.08 µM	0.241 µM	0.807 µM	2.3 µM	0.685 µM
COC1CC(OC2OC(CO)C(O)C(O)C2O)/C(=C\C#N)C(O)C1OC (centres undefined)	–	> 100 µM	–	> 100 µM	–	> 100 µM	–	–	–	> 100 µM	–	> 100 µM	–	> 100 µM	> 100 µM	–
CC(C)Oc1cc(OCC(=O)O)cc(C(=O)N(CCC(N)=O)C(=O)Nc2ccc(C(=O)O)cc2OC(C)C)c1	–	–	> 100 µM	> 100 µM	> 100 µM	> 100 µM	> 100 µM	> 100 µM	> 100 µM	> 100 µM	> 100 µM	> 100 µM	> 100 µM	> 100 µM	> 100 µM	> 100 µM
CCc1ccc(Cc2ccc(CC)c(NC(=O)C(=O)Cc3nc4ccccc4nc3C)c2CC)c(CC)c1NC(=O)C(=O)Cc1nc2ccccc2nc1C	–	> 100 µM	–	> 100 µM	–	> 100 µM	–	44.4 µM	–	> 100 µM	–	> 100 µM	–	–	> 100 µM	–
CCN(CC)CCn1c(=N)n(CC(O)c2ccc(Cl)c(Cl)c2)c2ccccc21 (centres undefined)	11.8 µM	25.1 µM	10.9 µM	23.1 µM	12.1 µM	25.5 µM	10.6 µM	23.8 µM	5.87 µM	20.6 µM	10.7 µM	22.8 µM	3.3 µM	12.1 µM	–	–

— PubChem BioAssay (NCI)
